Laboratory results from PMC3823594, “Conformational Changes Underlying Pore Dilation in the Cytoplasmic Domain of Mammalian Inward Rectifier K^+ Channels” (PLoS ONE, 2013).
Numbering of substitutions follows the chain as printed.

Columns and labels:
Kir3.2 WT = assay: Inside-out patch clamp recording of channel activity; assay type: cell-based, mouse; conditions: Kir3.2 WT in HEK293T inside-out patches, −100 mV
Protocol: (§1) The Kir3.2d and m2R subcloned into pcDNA3 (Invitrogen) were transfected into HEK293T cells using the Lipofectamine Plus reagent (Invitrogen, Carlsbad, CA). Single-channel activity was recorded in a cell-attached configuration at a holding potential of -100 mV using a patch-clamp amplifier (Axopatch 200B; Axon Instruments). The current traces were low-pass filtered at 1 kHz and digitized at 10 kHz. The glass pipettes had resistances of 2.5–3.5 MΩ when filled with the pipette solution, which contained 135 mM KCl, 1 mM CaCl2, 1.6 mM MgCl2, 5 mM HEPES, and 5 μM ACh; the bath solution was a Tyrode solution. A 50% crossing criterion for the current amplitude was used to judge the single-channel activity.
(§2) Inside-out patch clamp experiments were performed by the excision of patch membranes in the cell-attached configuration. The bath solution consisted of 135 mM KCl, 5 mM EGTA, 2 mM MgCl2 and 5 mM HEPES. The holding potential was -100 mV. We perfused ATP at the intracellular side to produce PIP2 at the inner leaflet of the plasma membrane, GTP (3 μM) to produce Gβγ mildly and GTPγS (10 μM) to generate Gβγ maximally. The pH of all solutions was adjusted to 7.35 with KOH prior to the experiments. All experiments were conducted at ambient temperature (20–25°C).
Figure 5 Inside-out patch recordings of Kir3.2 WT and mutant channels. […]

Kir3.2 M313G = target: T1, Kir3.2 M313G (Mus musculus, UniProt P48542, I313G); assay: as above; assay type: cell-based; conditions: Kir3.2 M313G in HEK293T inside-out patches; ATP perfused at 2 mM; −100 mV
T1 sequence (P48542 19-425 I313G): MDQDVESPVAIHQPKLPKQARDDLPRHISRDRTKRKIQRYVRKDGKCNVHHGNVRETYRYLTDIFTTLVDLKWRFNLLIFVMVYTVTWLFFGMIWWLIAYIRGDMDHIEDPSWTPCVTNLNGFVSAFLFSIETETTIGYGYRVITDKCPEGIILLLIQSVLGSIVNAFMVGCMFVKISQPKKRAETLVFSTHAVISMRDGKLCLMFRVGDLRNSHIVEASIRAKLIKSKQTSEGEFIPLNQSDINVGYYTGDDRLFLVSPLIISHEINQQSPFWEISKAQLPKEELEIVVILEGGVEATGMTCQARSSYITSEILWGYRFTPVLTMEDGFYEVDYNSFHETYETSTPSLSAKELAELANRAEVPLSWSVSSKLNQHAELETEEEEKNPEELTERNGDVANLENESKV
T1 sequence (P06199 1-466 partner): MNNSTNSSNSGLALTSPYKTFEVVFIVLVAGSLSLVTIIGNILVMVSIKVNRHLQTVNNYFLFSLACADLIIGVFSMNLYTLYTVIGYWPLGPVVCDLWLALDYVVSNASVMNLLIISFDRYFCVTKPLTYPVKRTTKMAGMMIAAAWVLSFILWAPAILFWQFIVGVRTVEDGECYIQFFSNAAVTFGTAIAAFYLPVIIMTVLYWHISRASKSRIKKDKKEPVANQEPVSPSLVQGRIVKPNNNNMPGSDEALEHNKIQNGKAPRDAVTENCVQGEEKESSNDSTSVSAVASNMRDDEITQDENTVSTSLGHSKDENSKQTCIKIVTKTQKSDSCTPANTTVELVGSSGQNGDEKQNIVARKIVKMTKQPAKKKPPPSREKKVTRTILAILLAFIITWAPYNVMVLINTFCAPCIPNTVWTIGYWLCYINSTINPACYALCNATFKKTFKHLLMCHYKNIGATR
Protocol: as §1, §2
(§3) Figure 5 Inside-out patch recordings of Kir3.2 WT and mutant channels. Inside-out membrane patches were obtained from HEK293T cells expressing either Kir3.2 WT (A), M313G (B) or M313T mutant (C) channels. Experiments were conducted in symmetric 135 mM K^+ solutions with a holding potential of -100 mV. Perfusion of ATP was for the generation of PIP2 at the inner leaflet of the excised patch membranes. The protocol used for perfusion of substances to the intracellular side of the patch membrane is indicated by bars above the current traces.

Kir3.2 M313T = target: T2, Kir3.2 M313T (Mus musculus, UniProt P48542, I313T); assay: as above; assay type: cell-based; conditions: Kir3.2 M313T in HEK293T inside-out patches, −100 mV
T2 sequence (P48542 19-425 I313T): T1 sequence (P48542 19-425 I313G) with G295T
T2 sequence (P06199 1-466 partner): T1 sequence (P06199 1-466 partner)
Protocol: as §1, §2, §3

[1] = target: cytoplasmic domain (CPD) of the mouse Kir3.2 E236R mutant (mouse); assay: not stated; purified CPD E236R in solution; the method for the oligomeric state is not told
[2] = target: cytoplasmic domain (CPD) of the mouse Kir3.2 E236R mutant (mouse); assay: crystal structure; sitting drops; reservoir 15% (v/v) ethanol, 0.1 M HEPES-NaOH (pH 7.5), 0.2 M MgCl2; 4°C; space group P4212; 2.0 Å

Q: For `Nc1ncnc2c1ncn2[C@@H]1O[C@H](COP(=O)(O)OP(=O)(O)OP(=O)(O)O)[C@@H](O)[C@H]1O` [ATP], which “Channel activity as % of that evoked by 10 μM GTPγS” value (Kir3.2 WT; ATP perfused at 2 mM) is on record?
A: 15 ± 4%

Q: And the “Channel activity as % of that evoked by 10 μM GTPγS” value (Kir3.2 M313G)?
A: 59 ± 6%

Q: What about the “Sensitivity to ATP perfusion” value (Kir3.2 M313T; in contrast to M313G) of the same compound?
A: less sensitive

Q: With `Nc1nc2c(ncn2[C@@H]2O[C@H](COP(=O)(O)OP(=O)(O)OP(=O)(O)O)[C@@H](O)[C@H]2O)c(=O)[nH]1` [GTP] as the compound, how does the “Channel activity as % of the response evoked by GTPγS” value (Kir3.2 WT; GTP (3 μM)) read?
A: 4 ± 2%

Q: And the “Channel activity as % of the response evoked by GTPγS” value (Kir3.2 M313T; GTP (3 μM))?
A: about 11 ± 2%

Q: Which results are given for “cytoplasmic domain (CPD) of the mouse Kir3.2 E236R mutant (domain or fragment)”?
A: stoichiometry N [1]: 4; stoichiometry N [2]: 4
